Test results taken from US12280132B2, “Skin care composition” (The Procter & Gamble Company, priority 2021, dated 2025).

Legend:
[1] = HCA Crystallization, freeze/thaw temperature cycling; assay type: physicochemical; conditions: Table 7; hydrotrope at stated level in 0.5% 4-HCA composition, formula pH 3.8
From the text: This method provides a way to determine HCA solubility in a composition by observing HCA crystals in situ. The method involves cycling the temperature of a test sample between freezing and thawing to imitate environmental conditions experienced by a skin care composition at an accelerated rate. This type of accelerated aging is commonly used in cosmetic product stability testing. HCA crystals can be detected using conventional means such as visual observation and microscopy.
A bulk sample of at least 10 g (e.g., 20 g-60 g) of the composition to be tested is placed in a suitable container that enables visual observation of the test sample (e.g., transparent plastic or glass jar). The test sample is subjected to 1 month of freeze/thaw temperature cycling to simulate environmental conditions that a skin care product may experience during shipping and storage. This is sometimes referred to as accelerated aging. The temperature cycling involves a 1-week freeze cycle at −7° C., followed by a 1-week thaw cycle at 25° C., and then repeating this freeze/cycle for a total temperature cycling time of 1 month.
Upon completion of the accelerated aging process (i.e., 1 month of temperature cycling), transparent test samples are visually inspected in-situ in the transparent container to determine if HCA crystallization/precipitation occurred. For opaque and translucent samples, the entire test sample is removed from the container and transferred to a suitable transparent substrate (e.g., plastic film or glass plate) and formed into a thin film of no more than 1 mm thickness. The sample is covered with a second transparent substrate to inhibit the loss of volatile ingredients during inspection. A light source (e.g., LED lamp or the like) is used to backlight the sample to aid in visual inspection. HCA crystals will generally appear as a precipitate in the composition visible to the naked eye when observed by someone with 20/20 vision from 45 cm away. Any precipitate identified during visual observation may be further evaluated using a microscope capable of providing fluorescent birefringence observation with cross-polarized light to identify anisotropic crystals. Any anisotropic crystal that has a longest dimension of greater than 0.1 mm is identified as an HCA crystal and the total number of HCA crystals is recorded. A test sample that contains no more than 1 HCA crystal is considered to be “free of HCA crystals” and is recorded as a “pass.” A test sample that contains more than 1 HCA crystal, is recorded as a “fail.”
While it is desirable to formulate HCA containing compositions at lower pH to reduce 4-VP production and yellowing, the solubility of the HCA at low pH may not be sufficient for it to be added at levels needed for an effective skin care active.
The test compositions shown in Table 8 were subjected to 2 freeze/thaw cycles at −7C/25C for 1 week/1 week, totaling one month of temperature cycling.
The test compositions are shown below in Table 9. The test compositions were subjected to 2 freeze/thaw cycles at −7C/25C and 1 week/1 week, followed by a 90-day rest period at 25° C. After completion of the incubation period, the compositions were examined for the presence of HCA crystals, as described above.

[2] = Table 7, hydrotropes; cited from earlier work
[3] = Color method: change in yellowness (Δb*) after accelerated aging; assay type: physicochemical
From the text: This method can be used to determine the change in color of a product, material, or target portion of skin. A spectrophotometer (e.g., Spectrophotometer CM-3600A, Konica Minolta, Japan, or equivalent) is used to measure spectrometric data for CIE (International Commission on Illumination) specified illuminating and viewing conditions, and compute the associated tristimulus values, XYZ, based on CIE observer and a CIE illuminant standards. The ASTM standard for obtaining spectrometric data for Object-Color Evaluation is ASTM E1164-12(2017)el with the values and procedures for computing CIE tristimulus values from spectrometric data outlined in ASTM […]. The CIELAB color scale, also referred to as L*a*b*, are calculated from the tristimulus values as defined in ASTM […]. The L* denotes the sample's perceptual lightness. […] Portion samples are evaluated using a 10 mm path length in a plastic cell (e.g., CM-A131, Konica Minolta, Japan or equivalent), reflectance measurement, a 25.4 mm aperture opening at the specimen surface, and specular component excluded conditions with a standard white background. […] Synergy factor is calculated by dividing the observed value by the expected value. […]

Row | enhancement of effect of the oxygen quenching reducing agent at low pH vs. neutral pH ([3]; 3M40C) | enhancement of effect of the oxygen quenching reducing agent at low pH vs. neutral pH ([3]; 3W50C (printed 3WSOC)) | Structure (SMILES) | Crystallization [1] | pKA [2]
1 | – | – | O=C(O)c1ccc(O)cc1O [2,4-Dihydroxybenzoic Acid] | Pass (A test sample that contains no more than 1 HCA crystal is considered to be “free of HCA crystals” and is recorded as a “pass.”) | –
2 | – | – | O=C(O)c1ccc(O)c(O)c1 [3,4-Dihydroxybenzoic Acid, reference compound] | Fail (A test sample that contains more than 1 HCA crystal, is recorded as a “fail.”) | 4.16
3 | 240% | 20% | O=S([O-])S(=O)(=O)[O-].[Na+].[Na+] [sodium metabisulfite] | – | –
4 | – | – | O=C([O-])C=Cc1ccccc1.[Na+] [Sodium Cinnamate, reference compound] | Fail (A test sample that contains more than 1 HCA crystal, is recorded as a “fail.”) | –
5 | – | – | O=C(O)c1cccc(O)c1O [2,3-Dihydroxybenzoic acid] | Pass (A test sample that contains no more than 1 HCA crystal is considered to be “free of HCA crystals” and is recorded as a “pass.”) | 2.56
6 | – | – | O=C([O-])c1ccccc1O.[Na+] [Sodium salicylate] | Pass (A test sample that contains no more than 1 HCA crystal is considered to be “free of HCA crystals” and is recorded as a “pass.”) | –
7 | – | – | COc1cccc(C(=O)O)c1O [3-Methoxysalicylic acid] | Pass (A test sample that contains no more than 1 HCA crystal is considered to be “free of HCA crystals” and is recorded as a “pass.”) | 2.55
